Patent publication US9394304B2, “Imidazopyridine derivatives” (Hoffmann-La Roche Inc., priority 2013, dated 2016)

Molecular target: h-TRPA1 (Homo sapiens (Human), UniProt O75762)
Assay: Dose response calcium flux (FLIPR) assay, ChanTest hTRPA1-CHO stably transfected cell line, cinnamaldehyde agonist
Format: cell-based
Settings: for inhibition at 3 µM / inhibition at 10 µM / inhibition at 30 µM / inhibition at 1 µM: % inhibition of the inhibitor control, read-out: Inhibition % @ concentration; for IC50: CHO-K1 Tet-On TRPA1 cells, calcium flux, 100 uM cinnamaldehyde
Protocol: IC50 Determinations of Exemplified Compounds
Dose Response Assay: ChanTest hTRPA1-CHO Stably Transfected Cell Line
To induce expression, tetracycline was added to blasticidin/zeocin-free media at a final concentration of 1 ug/ml. Experiments were run at 24 hours post induction.
Plating Conditions CHOK1/TRPA1 Cells:
Harvested cells with 0.025% trypsin/EDTA.
Resuspended cells in growth media without selection antibiotics.
Measured cell density and diluted to 2.4×10^5 cells/ml in media containing 1 ug/ml Doxycycline Plate 25 ul/well into 384 well black/clear tissue culture-treated plates.
Incubated overnight at 37° C.
Replacement Buffer: Hank's Balanced Salt Solution, 20 mM HEPES along with 0.005% BSA and 2× Probenecid
Dye Loading Buffer: Cal-3 NW Calcium dye was prepared by dissolving the contents of one vial with 500 ml Hank's Balanced Salt Solution containing 20 mM HEPES. • Control compounds for CHOK1/TRPA1 cells:
AP-18, stock 10 mM, prepare 3.5× compound dilution in a Compound Buffer (HBSS/20 mM HEPES/0.005% BSA)—final concentration 10 uM.
Working solution 4.5× (final 100 uM in Compound Buffer: HBSS/20 mM HEPES/0.005% BSA)
Compounds dilutions were prepared from 5 or 10 mM stock (100% DMSO):
Compounds were tested at either 20 μM three folds dilution 11 steps out or 30 μM two folds dilution 11 steps out.
3 μl of diluted compound were transferred into Weidmann 384-well plate in duplicates side-by-side.
Compound plates were resuspended with 100 ul of HBSS/20 mM HEPES/0.005% BSA buffer (Compound Buffer):
Growth media was removed from the cell plates (20 ul) and 20 ul of the Replacement Buffer was added followed by addition of 25 ul of diluted dye. All three steps were performed using a Plate Washer BioTek 407. The plates were then incubated for 30′ at RT.
After incubation, both the cell and compound plates were brought to the FLIPR and 20 ul of the diluted compounds/antagonist/bk were transferred to the cell plates by the FLIPR. Plates were then incubated for 30′ at room temperature. After 30′ incubation, plates were returned to the FLIPR and 20 ul of 4.5× Cinnamaldehyde was added to the cell plates. During the compound addition as well as agonist addition, fluorescence readings were taken simultaneously from all 384 wells of the cell plate every 1.5 seconds. Five readings were taken to establish a stable baseline, then 20 ul of sample was rapidly (30 ul/sec) and simultaneously added to each well of the cell plate. The fluorescence was continuously monitored before, during and after sample/agonist addition for a total elapsed time of 100 seconds (compound addition) and 120 seconds (agonist addition). Responses (increase in peak fluorescence) in each well following agonist addition was determined. The initial fluorescence reading from each well, prior to ligand stimulation, was used a zero baseline value for the data from that well.

Sequence of h-TRPA1 (O75762 whole entry): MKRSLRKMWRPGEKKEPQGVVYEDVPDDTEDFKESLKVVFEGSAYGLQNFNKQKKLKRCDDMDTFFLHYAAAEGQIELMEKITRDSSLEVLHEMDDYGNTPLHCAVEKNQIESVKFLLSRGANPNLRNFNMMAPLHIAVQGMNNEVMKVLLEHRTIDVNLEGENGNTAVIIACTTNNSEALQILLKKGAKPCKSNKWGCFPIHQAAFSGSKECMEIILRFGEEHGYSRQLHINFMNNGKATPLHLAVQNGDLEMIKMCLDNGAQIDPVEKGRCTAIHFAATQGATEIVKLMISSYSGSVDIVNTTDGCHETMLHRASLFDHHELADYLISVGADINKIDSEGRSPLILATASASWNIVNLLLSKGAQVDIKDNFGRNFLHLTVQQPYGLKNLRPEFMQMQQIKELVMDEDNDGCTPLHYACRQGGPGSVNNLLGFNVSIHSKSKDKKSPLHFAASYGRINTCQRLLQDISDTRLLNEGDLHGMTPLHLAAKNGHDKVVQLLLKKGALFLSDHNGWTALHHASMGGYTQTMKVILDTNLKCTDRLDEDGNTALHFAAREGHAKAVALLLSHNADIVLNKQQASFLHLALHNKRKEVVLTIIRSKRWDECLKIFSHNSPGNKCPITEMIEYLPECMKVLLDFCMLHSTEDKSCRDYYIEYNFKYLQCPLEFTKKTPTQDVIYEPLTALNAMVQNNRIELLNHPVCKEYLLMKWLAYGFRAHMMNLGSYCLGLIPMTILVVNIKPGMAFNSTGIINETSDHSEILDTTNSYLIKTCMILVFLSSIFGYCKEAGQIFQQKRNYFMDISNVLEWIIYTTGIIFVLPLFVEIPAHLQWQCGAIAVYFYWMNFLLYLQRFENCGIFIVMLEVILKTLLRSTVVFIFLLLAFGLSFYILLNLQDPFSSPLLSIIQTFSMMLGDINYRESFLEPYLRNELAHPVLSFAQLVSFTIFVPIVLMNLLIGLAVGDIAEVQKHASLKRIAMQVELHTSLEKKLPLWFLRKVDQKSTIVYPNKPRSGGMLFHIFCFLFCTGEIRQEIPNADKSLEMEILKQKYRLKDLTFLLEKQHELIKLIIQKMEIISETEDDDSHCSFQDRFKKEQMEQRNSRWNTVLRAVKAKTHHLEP

SMILES	inhibition at 3 µM [%]	IC50 [nM]	inhibition at 10 µM [%]	inhibition at 30 µM [%]	inhibition at 1 µM [%]
CC(C)Nc1c(-c2cccc(Cl)c2)nc2ccc(Cl)cn12 [Example 2, [6-Chloro-2-(3-chloro-phenyl)-imidazo[1,2-a]pyridin-3-yl]-isopropyl-amine]		195		100	
CC(C)Nc1c(-c2cccc(Cl)c2)nc2ccc(Br)cn12 [Example 1]		132			100
CC(C)(C)Nc1c(-c2cccc(Cl)c2)nc2c(Br)cc(Cl)cn12 [Example 8, [8-Bromo-6-chloro-2-(3-chloro-phenyl)-imidazo[1,2-a]pyridin-3-yl]-tert-butyl-amine]	100	1090			
COC(=O)CNc1c(-c2cccc(F)c2)nc2ccc(F)cn12 [Example 3, [6-Fluoro-2-(3-fluoro-phenyl)-imidazo[1,2-a]pyridin-3-ylamino]-acetic acid methyl ester]		3300		74.3	
CC(C)(C)Nc1c(-c2cccc(C#N)c2)nc2ccc(Cl)cn12 [Example 6, 3-(3-tert-Butylamino-6-chloro-imidazo[1,2-a]pyridin-2-yl)-benzonitrile]		2130	90		
CC(C)(C)Nc1c(-c2cccc(C#N)c2)nc2ccc(C(F)(F)F)cn12 [Example 5, 3-(3-tert-Butylamino-6-trifluoromethyl-imidazo[1,2-a]pyridin-2-yl)-benzonitrile]		854		100	
CC(C)(C)Nc1c(-c2cccc(F)c2)nc2ccc(C(F)(F)F)cn12 [Example 4, tert-Butyl-[2-(3-fluoro-phenyl)-6-trifluoromethyl-imidazo[1,2-a]pyridin-3-yl]-amine]	100	1330			
Clc1cccc(-c2nc3ccc(Cl)cn3c2NC2CC2)c1 [Example 7, [6-Chloro-2-(3-chloro-phenyl)-imidazo[1,2-a]pyridin-3-yl]-cyclopropyl-amine]		1590	100		

Second part, the molecule after the results:

inhibition at 3 µM [%]	IC50 [nM]	inhibition at 10 µM [%]	inhibition at 30 µM [%]	inhibition at 1 µM [%]	SMILES
100	143				CC(C)Nc1c(-c2cccc(Cl)c2)nc2ccc(C(F)(F)F)cn12 [Example 16, [2-(3-Chloro-phenyl)-6-trifluoromethyl-imidazo[1,2-a]pyridin-3-yl]-isopropyl-amine]
	82	100			C#Cc1cccc(-c2nc3ccc(C(F)(F)F)cn3c2NC(C)C)c1 [Example 15, [2-(3-Ethynyl-phenyl)-6-trifluoromethyl-imidazo[1,2-a]pyridin-3-yl]-isopropyl-amine]
	1120		100		CC(C)(C)Nc1c(-c2cccc(Cl)c2)nc2cc(C(F)(F)F)ccn12 [Example 13, tert-Butyl-[2-(3-chloro-phenyl)-7-trifluoromethyl-imidazo[1,2-a]pyridin-3-yl]-amine]
	264	100			CC(C)(C)Nc1c(-c2cccc(Br)c2)nc2ccc(C(F)(F)F)cn12 [Example 17, [2-(3-Bromo-phenyl)-6-trifluoromethyl-imidazo[1,2-a]pyridin-3-yl]-tert-butyl-amine]
	221	100			Cc1cc(Br)cn2c(NC(C)(C)C)c(-c3cccc(Cl)c3)nc12 [Example 10, [6-Bromo-2-(3-chloro-phenyl)-8-methyl-imidazo[1,2-a]pyridin-3-yl]-tert-butyl-amine]
	20400		80.9		CC(C)(C)Nc1c(-c2cccc(C#N)c2)nc2ccc(F)cn12 [Example 18, 3-(3-tert-Butylamino-6-fluoro-imidazo[1,2-a]pyridin-2-yl)-benzonitrile]
	110			100	C#Cc1cccc(-c2nc3ccc(C(F)(F)F)cn3c2NC(C)(C)C)c1 [Example 12, tert-Butyl-[2-(3-ethynyl-phenyl)-6-trifluoromethyl-imidazo[1,2-a]pyridin-3-yl]-amine]
	1330		98		CC(C)(C)Nc1c(-c2cc(Cl)cc(Cl)c2)nc2ccc(C(F)(F)F)cn12 [Example 11, tert-Butyl-[2-(3,5-dichloro-phenyl)-6-trifluoromethyl-imidazo[1,2-a]pyridin-3-yl]-amine]
	2070		100		CCNc1c(-c2cccc(Cl)c2)nc2ccc(C(F)(F)F)cn12 [Example 14, [2-(3-Chloro-phenyl)-6-trifluoromethyl-imidazo[1,2-a]pyridin-3-yl]-ethyl-amine]
	229		100		Cc1cc2nc(-c3cccc(Cl)c3)c(NC(C)(C)C)n2cc1Br [Example 9, [6-Bromo-2-(3-chloro-phenyl)-7-methyl-imidazo[1,2-a]pyridin-3-yl]-tert-butyl-amine]
